Assay results published in ChEMBL document CHEMBL1146835, “Aspermytin A: a new neurotrophic polyketide isolated from a marine-derived fungus of the genus Aspergillus” (2004).

Tested on: PC-12
Experiment: Neurotrophic effect on rat pheochromocytoma (PC-12) cells was expressed as percent cells with neurites after 2 days treatment with 50 uM of compound
Format: functional

C[C@H]1CCC2[C@@H](C=C[C@@](C)(O)[C@]2(C)C(=O)CCO)C1 (stereo partly specified)
Cells: >50%
